{"source": "patent US4997931A", "about": "“Epipodophyllotoxin glycosides” (Bristol-Myers Squibb Company, priority 1990, dated 1991)", "key": {"murine P388 leukemia": {"test_system": "murine P388 leukemia", "test": "In vivo antitumor activity in the lymphocytic leukemia P388 system", "parameters": "species or system mouse (Female CDF1 mice)", "details": "i.p., once on day 1 (Q1D×1), over 125% significant", "description": "Antitumor activity of representative compounds of the present invention was tested in the lymphocytic leukemia P388 system. Female CDF1 mice were inoculated intraperitoneally with 1.0×10^6 of leukemia cells per mouse (day 0) and test materials were intraperitoneally administered to mice once on day 1 (Q1D×1). […] The median survival time (MST) of each test group was recorded, and antitumor activity was expressed by means of T/C% values calculated by the following equation:\nT/C%=(MST treated.div.MST control)×100\nThe T/C% values of over 125% are considered significant antitumor activity.\n(§1) For the in vivo expermient, only the maximum T/C% and the dose giving the maximum value are shown."}, "[1]": {"test_system": "Murine melanoma B16-F10 cells", "test": "In vitro cytotoxicity against B16-F10 cells (neutral red staining, 72 hours)", "type": "cell-based", "details": "Mus musculus, 72 hours incubation, read-out: Cytotoxicity (IC50, μg/ml)", "description": "Murine melanoma B16-F10 cells were grown and maintained at 37° C. under a humidified atmosphere in a 5% CO2 incubator in Eagle's MEM medium (Nissui) containing kanamycin (60 μg/ml), and supplemented with heat inactivated fetal calf serum (10%) and non-essential amino acids (0.6%). Exponentially growing B16-F10 cells were harvested, counted and suspended in the culture medium at a concentration of 2.0×10^4 cells/ml. Twenty-four hours after planting cell suspension (180 μl) into wells of a 96-well microtiter plate, test materials (20 μl) were added to the wells and the plates were incubated for 72 hours. The cytotoxic activity against B16-F10 cells was colorimetrically determined at 540 nm after staining viable cells with neutral red solution.\nas §1"}, "[2]": {"details": "120 mg/kg/Day (dose giving maximum T/C%)"}, "[3]": {"details": "60 mg/kg/Day (dose giving maximum T/C%)"}}}
{"molecule": "COc1cc([C@@H]2c3cc4c(cc3[C@@H](O[C@@H]3O[C@H]([C@H]5COC(C)O5)[C@@H](O)[C@H]3O)[C@H]3COC(=O)[C@H]23)OCO4)cc(OC)c1O", "note": "(single isomer, unassigned) [Example 2 (epimer I), 4'-demethyl-4-O-(5,6-O-ethylidene-β-D-allofuranosyl)epipodophyllotoxin]", "values": [{"measurement": "Anti-P388 T/C % (maximum; MST treated/MST control ×100)", "setting": "murine P388 leukemia; [2]", "result": 150, "unit": "%"}, {"measurement": "IC50", "setting": "[1]", "result": "> 100", "unit": "µg/mL"}]}
{"molecule": "COc1cc([C@@H]2c3cc4c(cc3[C@@H](O[C@@H]3O[C@H]([C@H]5COC(C)O5)[C@@H](O)[C@H]3O)[C@H]3COC(=O)[C@H]23)OCO4)cc(OC)c1O", "note": "(single isomer, unassigned) [Example 2 (epimer II), 4'-demethyl-4-O-(5,6-O-ethylidene-β-D-allofuranosyl)epipodophyllotoxin]", "values": [{"measurement": "Anti-P388 T/C % (maximum; MST treated/MST control ×100)", "setting": "murine P388 leukemia; [3]", "result": 140, "unit": "%"}]}
{"molecule": "COc1cc([C@@H]2c3cc4c(cc3[C@@H](O[C@@H]3O[C@@H]5CO[C@@H](C)O[C@H]5[C@H](O)[C@H]3O)[C@H]3COC(=O)[C@H]23)OCO4)cc(OC)c1O", "note": "[Etoposide, reference compound]", "values": [{"measurement": "Anti-P388 T/C % (maximum; MST treated/MST control ×100)", "setting": "murine P388 leukemia; [2]", "result": 288, "unit": "%"}, {"measurement": "IC50", "setting": "[1]", "result": 0.21, "unit": "µg/mL"}]}
{"molecule": "COc1cc([C@@H]2c3cc4c(cc3[C@@H](O[C@@H]3O[C@@H]5COC(C)O[C@H]5[C@@H](O)[C@H]3O)[C@H]3COC(=O)[C@H]23)OCO4)cc(OC)c1O", "note": "(stereo partly drawn) [Example 1, 4'-Demethyl-4-O-(4,6-O-ethylidene-β-D-allopyranosyl)epidpodophyllotoxin]", "values": [{"measurement": "Anti-P388 T/C % (maximum; MST treated/MST control ×100)", "setting": "murine P388 leukemia; [3]", "result": 280, "unit": "%"}, {"measurement": "IC50", "setting": "[1]", "result": 2.1, "unit": "µg/mL"}]}
{"molecule": "COc1cc([C@@H]2c3cc4c(cc3[C@@H](O[C@@H]3O[C@@H]5COC(C)O[C@H]5[C@H](O)[C@@H]3O)[C@H]3COC(=O)[C@H]23)OCO4)cc(OC)c1O", "note": "(stereo partly drawn) [Example 3, 4'-Demethyl-4-O-(4.6-O-ethylidene-β-D-mannopyranosyl)epipodophyllotoxin]", "values": [{"measurement": "Anti-P388 T/C % (maximum; MST treated/MST control ×100)", "setting": "murine P388 leukemia; 30 mg/kg/Day (dose giving maximum T/C%)", "result": 186, "unit": "%"}, {"measurement": "IC50", "setting": "[1]", "result": 0.12, "unit": "µg/mL"}]}
{"molecule": "COc1cc([C@@H]2c3cc4c(cc3[C@@H](O[C@H]3O[C@@H]5COC(C)O[C@H]5[C@H](O)[C@@H]3O)[C@H]3COC(=O)[C@H]23)OCO4)cc(OC)c1O", "note": "(stereo partly drawn) [Example 4, 4'-demethyl-4-O-(4,6-O-ethylidene-α-D-mannopyranosyl)epipodophyllotoxin]", "values": [{"measurement": "Anti-P388 T/C % (maximum; MST treated/MST control ×100)", "setting": "murine P388 leukemia; 10 mg/kg/Day (dose giving maximum T/C%)", "result": 124, "unit": "%"}, {"measurement": "IC50", "setting": "[1]", "result": 19, "unit": "µg/mL"}]}
